Where a name gives a salt, the structure may show the parent alone.
biological target: T1, catalytic domain of human MMP-13 (Homo sapiens, UniProt P45452); experiment: Inhibition of proteolysis of a thioester peptide substrate by MMP-13; format: biochemical; conditions: not given
T1 construct: the catalytic domain of human MMP-13
Procedure: Evaluation of the in vitro activity of the MMP-13 inhibitor compounds according to the invention.
The inhibitory activity of the compounds of formula (I) according to the invention with respect to matrix metalloprotease-13 is evaluated by testing the ability of the compounds of the invention to inhibit the proteolysis of a peptide substrate with MMP-13.
The peptide substrate used in the test is the following peptide: Ac-Pro-Leu-Gly-thioester-Leu-Leu-Gly-OEt.
To carry out this test, a reaction medium of 100 μl volume is prepared, containing: 50 mM of HEPES buffer, 10 mM of CaCl2 and 1 mM of 5,5′-dithiobis-(2-nitrobenzoic acid) (DTNB), and 100 μM of substrate, the pH being adjusted to 7.0.
The concentrations of inhibitors present in the test samples range from 100 μM to 0.5 nM.
The IC50 values are calculated from a curve in which the percentage of the catalytic activity relative to the control is represented on the X-axis and the concentration of inhibitor is represented on the Y-axis.

| SMILES | IC50 [µM] |
| --- | --- |
| NS(=O)(=O)c1ccc(Cn2cnc3ccc(C#CCc4ccccc4)cc3c2=O)cc1 [Example 59, 4-[4-Oxo-6-(3-phenyl-prop-1-ynyl)-4H-quinazolin-3-ylmethyl]-benzenesulfonamide] | < 1 |
| O=c1c2cc(C#CCc3ccccc3)ccc2ncn1Cc1ccc(F)cc1 [Example 8, 3-(4-fluorobenzyl)-6-(3-phenyl-pro-1-ynyl)-3 H-quinazolin-4-one] | < 1 |
| N#Cc1ccc(Cn2cnc3ccc(C#CCc4ccccc4)cc3c2=O)cc1 [Example 60, 4-[4-Oxo-6-(3-phenyl-prop-1-ynyl)-4H-quinazolin-3-ylmethyl]-benzonitrile] | < 1 |
| COC(=O)c1ccc(Cn2cnc3ccc(C#CCc4ccccc4)cc3c2=O)cc1 [Example 9, Methyl 4-[4-Oxo-6-(3-phenyl-prop-1-ynyl)-4H-quinazolin-3-ylmethyl]-benzoate] | < 1 |
| O=c1c2cc(C#CCc3ccccc3)ccc2ncn1Cc1cccc(Cl)c1 [Example 62, 3-(3-Chloro-benzyl)-6-(3-phenyl-prop-1-ynyl)-3H-quinazolin-4-one] | < 1 |

Second part, the compound after the results:

| IC50 [µM] | SMILES |
| --- | --- |
| ≥ 65 | O=C(O)c1ccc(Cn2cnc3ccc(C#CCN4CCCCC4)cc3c2=O)cc1 [Example 107, 4-[4-Oxo-6-(3-piperidin-1-yl-prop-1-ynyl)-4H-quinazolin-3-ylmethyl]-benzoic acid trifluoroacetic acid salt] |
| ≥ 65 | O=C(O)c1ccc(Cn2cnc3ccc(C#CCN4CCOCC4)cc3c2=O)cc1 [Example 106, 4-[6-(3-Morpholin-4-yl-prop-1-ynyl)-4-oxo-4H-quinazolin-3-ylmethyl]-benzoic acid trifluoroacetic acid salt] |

same assay, conditions: substrate Ac-Pro-Leu-Gly-thioester-Leu-Leu-Gly-OEt 100 μM, pH 7.0, 2.5 nM enzyme; read-out: IC50 values on MMP-13

| SMILES | IC50 [µM] |
| --- | --- |
| COc1ccc(CNC(=O)c2ccc3nc(C)n(Cc4ccc(OC)cc4)c(=O)c3c2)cc1 [Example 2, 3-(4-Methoxy-benzyl)-2-methyl-4-oxo-3,4-dihydro-quinazoline-6-carboxylic acid 4-methoxy-benzylamide, hydrochloride] | < 1 |
| COc1cccc(CNC(=O)c2cc3c(=O)n(Cc4cccc(F)c4)cnc3cn2)c1 [Example 23, 3-(3-Fluoro-benzyl)-4-oxo-3,4-dihydro-pyrido[3,4-d]pyrimidine-6-carboxylic acid 3-methoxy-benzylamide] | < 1 |
| O=c1c2cc(C#CCc3ccccc3)ccc2ncn1Cc1ccncc1 [Example 70, 6-(3-Phenyl-prop-1-ynyl)-3-pyridin-4-ylmethyl-3H-quinazolin-4-one] | < 1 |
| COc1ccc(CNC(=O)c2ccc3c(c2)C(=O)N(Cc2ccc(OC)cc2)C(C)(C)N3C)cc1 [Example 4, 3-(4-Methoxy-benzyl)-1,2,2-trimethyl-4-oxo-1,2,3,4-tetrahydro-quinazoline-6-carboxylic acid 4-methoxy-benzylamide] | < 1 |
| COc1cccc(CNC(=O)c2ccc3ncn(Cc4ccc(F)cc4)c(=O)c3c2)c1 [Example 14, 3-(4-Fluoro-benzyl)-4-oxo-3,4-dihydro-quinazoline-6-carboxylic acid 3-methoxy-benzylamide] | < 1 |
| COc1ccc(CC#Cc2ccc3ncn(Cc4ccc(F)c(F)c4)c(=O)c3c2)cc1 [Example 66, 3-(3,4-Difluoro-benzyl)-6-[3-(4-methoxy-phenyl)-prop-1-ynyl]-3H-quinazolin-4-one] | < 1 |
| COc1ccc(CNC(=O)c2ccc3ncn(Cc4ccc(S(C)(=O)=O)cc4)c(=O)c3c2)cc1 [Example 15] | < 1 |
| COc1ccc(CNC(=O)c2ccc3c(c2)C(=O)N(Cc2ccc(C(=O)O)cc2)CN3C)cc1 [Example 7, 4-[6-(4-Methoxy-benzylcarbamoyl)-1-methyl-4-oxo-1,4-dihydro-2H-quinazolin-3-ylmethyl]-benzoic acid] | < 1 |
| COc1ccc(CNC(=O)c2ccc3c(c2)C(=O)N(Cc2ccc(C(=O)O)cc2)CN3)cc1 [Example 5, 4-[6-(4-Methoxy-benzylcarbamoyl)-4-oxo-1,4-dihydro-2H-quinazolin-3-ylmethyl]-benzoic acid] | < 1 |
| O=c1c2cc(C#CCOc3ccncc3)ccc2ncn1Cc1ccc(F)c(F)c1 [Example 65, 3-(3,4-Difluoro-benzyl)-6-[3-(pyridin-4-yloxy)-prop-1-ynyl]-3H-quinazolin-4-one] | < 1 |
| COc1ccc(CNC(=O)c2ccc3ncn(Cc4ccc(S(=O)(=O)N5CCCC5)cc4)c(=O)c3c2)cc1 [Example 16, 4-Oxo-3-[4-(pyrrolidine-1-sulfonyl)-benzyl]-3,4-dihydro-quinazoline-6-carboxylic acid 4-methoxy-benzylamide] | < 1 |
| COc1ccc(CC#Cc2ccc3ncn(Cc4ccc(C(C)=O)cc4)c(=O)c3c2)cc1 [Example 69, 3-(4-Acetyl-benzyl)-6-[3-(4-methoxy-phenyl)-prop-1-ynyl]-3H-quinazolin-4-one] | < 1 |
| COc1ccc(CNC(=O)c2ccc3ncn(Cc4ccc(F)c(F)c4)c(=O)c3c2)cc1 [Example 105, 3-(3,4-Difluoro-benzyl)-4-oxo-3,4-dihydro-quinazoline-6-carboxylic acid 4-methoxy-benzylamide] | < 1 |

Second part, the compound after the results:

| IC50 [µM] | SMILES |
| --- | --- |
| < 1 | O=c1c2cc(C#CCc3ccccc3)ccc2ncn1Cc1ccc(F)c(F)c1 [Example 68, 3-(3,4-Difluoro-benzyl)-6-(3-phenyl-prop-1-ynyl)-3H-quinazolin-4-one] |
| < 1 | CC(=O)Nc1ccc(Cn2cnc3ccc(C#CCc4ccccc4)cc3c2=O)cc1 [Example 67, N-{4-[4-Oxo-6-(3-phenyl-prop-1-ynyl)-4H-quinazolin-3-ylmethyl]-phenyl}-acetamide] |
| < 1 | O=C(O)c1ccc(Cn2cnc3ccc(C#CCN4Cc5ccccc5C4)cc3c2=O)cc1 [Example 109, 4-{6-[3-(1,3-Dihydro-isoindol-2-yl)-prop-1-ynyl]-4-oxo-4H-quinazolin-3-ylmethyl}-benzoic acid trifluoroacetic acid] |
| < 1 | COc1cc(CNC(=O)c2ccc3ncn(Cc4ccc(F)cc4)c(=O)c3c2)ccn1 [Example 21, 3-(4-Fluoro-benzyl)-4-oxo-3,4-dihydro-quinazoline-6-carboxylic acid (2-methoxy-pyridin-4-ylmethyl)-amide] |
| < 1 | COc1cc(CNC(=O)c2ccc3ncn(Cc4ccc(F)c(F)c4)c(=O)c3c2)ccn1 [Example 104, 3-(3,4-Difluoro-benzyl)-4-oxo-3,4-dihydro-quinazoline-6-carboxylic acid (2-methoxy-pyridin-4-ylmethyl)-amide] |
| < 1 | COc1cccc(CNC(=O)c2ccc3ncn(Cc4ccc(C(=O)O)cc4)c(=O)c3c2)c1 [Example 17, 4-[6-(3-Methoxy-benzylcarbamoyl)-4-oxo-4H-quinazolin-3-ylmethyl]-benzoic acid] |
| < 1 | COC(=O)c1ccc(CN2CN(C)c3ccc(C(=O)NCc4ccc(OC)cc4)cc3C2=O)cc1 [Example 6, Methyl 4-[6-(4-Methoxy-benzylcarbamoyl)-1-methyl-4-oxo-1,4-dihydro-2H-quinazolin-3-ylmethyl]-benzoate] |
| ≥ 65 | CN1CCN(CC#Cc2ccc3ncn(Cc4ccc(C(=O)O)cc4)c(=O)c3c2)CC1 [Example 108, 4-{6-[3-(4-Methyl-piperazin-1-yl)-prop-1-ynyl]-4-oxo-4H-quinazolin-3-ylmethyl}-benzoic acid trifluoroacetic acid salt] |
| < 1 | COc1ccc(CNC(=O)c2ccc3c(c2)C(=O)N(Cc2ccc(OC)cc2)CN3C)cc1 [Example 3, 3-(4-Methoxy-benzyl)-1-methyl-4-oxo-1,2,3,4-tetrahydro-quinazoline-6-carboxylic acid 4-methoxy-benzylamide] |
| < 1 | COc1ccc(CNC(=O)c2cc3c(=O)n(Cc4cccc(F)c4)cnc3cn2)cc1 [Example 24, 3-(3-Fluoro-benzyl)-4-oxo-3,4-dihydro-pyrido[3,4-d]pyrimidine-6-carboxylic acid 4-methoxy-benzylamide] |
| < 1 | COc1ccc(CC#Cc2ccc3ncn(Cc4ccncc4)c(=O)c3c2)cc1 [Example 71, 6-[3-(4-Methoxy-phenyl)-prop-1-ynyl]-3-pyridin-4-ylmethyl-3H-quinazolin-4-one] |
| < 1 | COc1ccc(CNC(=O)c2ccc3ncn(Cc4ccc(OC)cc4)c(=O)c3c2)cc1 [Example 1, 3-(4-Methoxy-benzyl)-4-oxo-3,4-dihydro-quinazoline-6-carboxylic acid 4-methoxy-benzylamide] |
